Reference: patent US12497365B2, “4-pyridinyl formamide compound or derivative thereof, preparation method therefor, herbicidal composition and use thereof” (Qingdao Kingagroot Chemical Compound Co., Ltd., priority 2019, dated 2025)

Each compound was assayed on Abutilon theophrasti (assay: Weeding effect in post-emergence stage). Details: active ingredient 2000 g/ha, 3 weeks after application, fresh weight control rate.
Type: in vivo
Text: (§1) The activity level criteria for plant damage (i.e., growth control rate) are as follows:
(§2) The above growth control rates are fresh weight control rates.
(§3) Experiment on weeding effect in post-emergence stage: monocotyledonous and dicotyledonous weed seeds and major crop seeds (wheat, corn, rice, soybean, cotton, oilseed rape, millet, sorghum) were placed in plastic pots filled with soil, then covered with 0.5-2 cm of soil, allowed to grow in a good greenhouse environment. After 2 weeks of sowing, the test plants were treated in the 2-3 leaf stage. The tested compounds of the present invention were respectively dissolved in acetone at the dosage of 2000, 1000, 500, 250, 125 g/ha, then added with Tween 80 and 1.5 liter/ha of emulsifiable concentrate of methyl oleate as synergist, diluted with a certain amount of water to obtain a solution with a certain concentration, and sprayed with a spray tower onto the plants. After the application, the plants were cultured for 3 weeks in the greenhouse, and then the experimental results were listed in Table 1.

Compound | Weeding effect, activity level (growth control rate), Abutilon theophrasti
Cn1nnnc1NC(=O)c1ccnc(-c2ccnn2C(F)F)c1Cl [Compound 1-181] | 5 (Level 5: growth control rate is above 85%)
Cn1nnnc1NC(=O)c1ccnc(-c2ccc(C#N)cc2)c1F [Compound 1-2016] | 5 (Level 5: growth control rate is above 85%)
Cc1cc(C)cc(-c2nccc(C(=O)Nc3nnnn3C)c2Cl)c1 [Compound 1-60] | 5 (Level 5: growth control rate is above 85%)
Cn1nnnc1NC(=O)c1ccnc(-c2ccc(F)cc2C(F)(F)F)c1Cl [Compound 1-73] | 5 (Level 5: growth control rate is above 85%)
Cn1nnnc1NC(=O)c1ccnc(-c2ccc(F)cc2)c1Br [Compound 1-196] | 5 (Level 5: growth control rate is above 85%)
Cn1nnnc1NC(=O)c1ccnc(-c2cc3ccccc3o2)c1Cl [Compound 1-2010] | 5 (Level 5: growth control rate is above 85%)
Cn1nnnc1NC(=O)c1ccnc(-c2ccc(F)cc2)c1C=C(F)F [Compound 1-222] | 5 (Level 5: growth control rate is above 85%)
Cn1nnnc1NC(=O)c1ccnc(-c2ccc(F)cc2)c1OCC(F)(F)F [Compound 1-202] | 5 (Level 5: growth control rate is above 85%)
Cc1nnc(NC(=O)c2ccnc(-c3ccc(F)cc3)c2Cl)n1C [Compound 1-650] | 5 (Level 5: growth control rate is above 85%)

Each compound was assayed on Amaranthus retroflexus L. (assay: Weeding effect in post-emergence stage). Details: active ingredient 2000 g/ha, 3 weeks after application, fresh weight control rate.
Type: in vivo
Text: as §1, §2, §3

Compound | Weeding effect, activity level (growth control rate), Amaranthus retroflexus L.
Cn1nnnc1NC(=O)c1ccnc(-c2ccnn2C(F)F)c1Cl [Compound 1-181] | 5 (Level 5: growth control rate is above 85%)
Cn1nnnc1NC(=O)c1ccnc(-c2ccc(C#N)cc2)c1F [Compound 1-2016] | 5 (Level 5: growth control rate is above 85%)
Cc1cc(C)cc(-c2nccc(C(=O)Nc3nnnn3C)c2Cl)c1 [Compound 1-60] | 5 (Level 5: growth control rate is above 85%)
Cn1nnnc1NC(=O)c1ccnc(-c2ccc(F)cc2C(F)(F)F)c1Cl [Compound 1-73] | 5 (Level 5: growth control rate is above 85%)
Cn1nnnc1NC(=O)c1ccnc(-c2ccc(F)cc2)c1Br [Compound 1-196] | 5 (Level 5: growth control rate is above 85%)
Cn1nnnc1NC(=O)c1ccnc(-c2cc3ccccc3o2)c1Cl [Compound 1-2010] | 5 (Level 5: growth control rate is above 85%)
Cn1nnnc1NC(=O)c1ccnc(-c2ccc(F)cc2)c1C=C(F)F [Compound 1-222] | 5 (Level 5: growth control rate is above 85%)
Cn1nnnc1NC(=O)c1ccnc(-c2ccc(F)cc2)c1OCC(F)(F)F [Compound 1-202] | 5 (Level 5: growth control rate is above 85%)
Cc1nnc(NC(=O)c2ccnc(-c3ccc(F)cc3)c2Cl)n1C [Compound 1-650] | 5 (Level 5: growth control rate is above 85%)

What follows are compounds tested on Chenopodium album (assay: Weeding effect in post-emergence stage). Details: active ingredient 2000 g/ha, 3 weeks after application, fresh weight control rate.
Type: in vivo
Text: as §1, §2, §3

Compound | Weeding effect, activity level (growth control rate), Chenopodium album
Cn1nnnc1NC(=O)c1ccnc(-c2ccnn2C(F)F)c1Cl [Compound 1-181] | 5 (Level 5: growth control rate is above 85%)
Cn1nnnc1NC(=O)c1ccnc(-c2ccc(C#N)cc2)c1F [Compound 1-2016] | 5 (Level 5: growth control rate is above 85%)
Cc1cc(C)cc(-c2nccc(C(=O)Nc3nnnn3C)c2Cl)c1 [Compound 1-60] | 5 (Level 5: growth control rate is above 85%)
Cn1nnnc1NC(=O)c1ccnc(-c2ccc(F)cc2C(F)(F)F)c1Cl [Compound 1-73] | 5 (Level 5: growth control rate is above 85%)
Cn1nnnc1NC(=O)c1ccnc(-c2ccc(F)cc2)c1Br [Compound 1-196] | 5 (Level 5: growth control rate is above 85%)
Cn1nnnc1NC(=O)c1ccnc(-c2cc3ccccc3o2)c1Cl [Compound 1-2010] | 5 (Level 5: growth control rate is above 85%)
Cn1nnnc1NC(=O)c1ccnc(-c2ccc(F)cc2)c1C=C(F)F [Compound 1-222] | 5 (Level 5: growth control rate is above 85%)
Cn1nnnc1NC(=O)c1ccnc(-c2ccc(F)cc2)c1OCC(F)(F)F [Compound 1-202] | 5 (Level 5: growth control rate is above 85%)
Cc1nnc(NC(=O)c2ccnc(-c3ccc(F)cc3)c2Cl)n1C [Compound 1-650] | 5 (Level 5: growth control rate is above 85%)

These compounds were tested on Descurainia sophia (assay: Weeding effect in post-emergence stage). Details: active ingredient 2000 g/ha, 3 weeks after application, fresh weight control rate.
Type: in vivo
Text: as §1, §2, §3

Compound | Weeding effect, activity level (growth control rate), Descurainia sophia
Cn1nnnc1NC(=O)c1ccnc(-c2ccnn2C(F)F)c1Cl [Compound 1-181] | 5 (Level 5: growth control rate is above 85%)
Cn1nnnc1NC(=O)c1ccnc(-c2ccc(C#N)cc2)c1F [Compound 1-2016] | 5 (Level 5: growth control rate is above 85%)
Cc1cc(C)cc(-c2nccc(C(=O)Nc3nnnn3C)c2Cl)c1 [Compound 1-60] | 5 (Level 5: growth control rate is above 85%)
Cn1nnnc1NC(=O)c1ccnc(-c2ccc(F)cc2C(F)(F)F)c1Cl [Compound 1-73] | 5 (Level 5: growth control rate is above 85%)
Cn1nnnc1NC(=O)c1ccnc(-c2ccc(F)cc2)c1Br [Compound 1-196] | 5 (Level 5: growth control rate is above 85%)
Cn1nnnc1NC(=O)c1ccnc(-c2cc3ccccc3o2)c1Cl [Compound 1-2010] | 5 (Level 5: growth control rate is above 85%)
Cn1nnnc1NC(=O)c1ccnc(-c2ccc(F)cc2)c1C=C(F)F [Compound 1-222] | 5 (Level 5: growth control rate is above 85%)
Cn1nnnc1NC(=O)c1ccnc(-c2ccc(F)cc2)c1OCC(F)(F)F [Compound 1-202] | 5 (Level 5: growth control rate is above 85%)
Cc1nnc(NC(=O)c2ccnc(-c3ccc(F)cc3)c2Cl)n1C [Compound 1-650] | 5 (Level 5: growth control rate is above 85%)
